According to ChEMBL document CHEMBL5244230, “Artemisinin-derived hybrids and their anticancer activity” (Eur J Med Chem, 2020):

What follows are molecules tested on MDA-MB-231 (assay: Antiproliferative activity against human MDA-MB-231 cells assessed as reduction in cell viability measured for 72 hrs by MTT assay). Details: MDA-MB-231, 72 h.
Format: functional, cell-based
In the case of C[C@H]1[C@H](NC(=O)COCc2ccc(C(=O)/C=C/c3ccccc3F)cc2)O[C@@H]2O[C@@]3(C)CC[C@H]4[C@H](C)CC[C@@H]1[C@@]24OO3, the IC50 is reported as 0.1 µM. C[C@H]1[C@@H](NC(=O)COCc2ccc(C(=O)/C=C/c3c(Cl)cccc3Cl)cc2)O[C@@H]2O[C@@]3(C)CC[C@H]4[C@H](C)CC[C@@H]1[C@@]24OO3 was tested, and the IC50 was 0.09 µM. C[C@H]1[C@@H](NC(=O)COCc2ccc(/C=C/C(=O)c3cccc(Cl)c3)cc2)O[C@@H]2O[C@@]3(C)CC[C@H]4[C@H](C)CC[C@@H]1[C@@]24OO3 showed an IC50 of 1.7 µM. With C[C@H]1[C@@H](NC(=O)COCc2ccc(/C=C/C(=O)c3ccc(Cl)c(Cl)c3)cc2)O[C@@H]2O[C@@]3(C)CC[C@H]4[C@H](C)CC[C@@H]1[C@@]24OO3 the IC50 was 1.7 µM. Work on C[C@H]1[C@H](NC(=O)COCc2ccc(C(=O)/C=C/c3cccc(Cl)c3Cl)cc2)O[C@@H]2O[C@@]3(C)CC[C@H]4[C@H](C)CC[C@@H]1[C@@]24OO3 yielded an IC50 of 0.1 µM. C[C@H]1[C@@H](NC(=O)COCc2ccc(/C=C/C(=O)c3ccc(C(F)(F)F)cc3)cc2)O[C@@H]2O[C@@]3(C)CC[C@H]4[C@H](C)CC[C@@H]1[C@@]24OO3 was tested, and the IC50 was 1.7 µM. Molecule COc1cccc(C(=O)/C=C/c2ccc(COCC(=O)N[C@H]3O[C@@H]4O[C@@]5(C)CC[C@H]6[C@H](C)CC[C@@H]([C@H]3C)[C@@]46OO5)cc2)c1 has an IC50 of 1.7 µM. COc1cccc(/C=C/C(=O)c2ccc(COCC(=O)N[C@H]3O[C@@H]4O[C@@]5(C)CC[C@H]6[C@H](C)CC[C@@H]([C@H]3C)[C@@]46OO5)cc2)c1 was tested, and the IC50 was 0.09 µM.

These molecules were tested on A549 (assay: Antiproliferative activity against human A549 cells assessed as reduction in cell viability measured for 72 hrs by MTT assay). Details: A549, 72 h.
Format: functional, cell-based
C[C@H]1[C@H](NC(=O)COCc2ccc(C(=O)/C=C/c3ccccc3F)cc2)O[C@@H]2O[C@@]3(C)CC[C@H]4[C@H](C)CC[C@@H]1[C@@]24OO3 was tested, and the IC50 was 0.1 µM. C[C@H]1[C@@H](NC(=O)COCc2ccc(C(=O)/C=C/c3c(Cl)cccc3Cl)cc2)O[C@@H]2O[C@@]3(C)CC[C@H]4[C@H](C)CC[C@@H]1[C@@]24OO3 gave an IC50 of 0.09 µM. Work on C[C@H]1[C@@H](NC(=O)COCc2ccc(/C=C/C(=O)c3cccc(Cl)c3)cc2)O[C@@H]2O[C@@]3(C)CC[C@H]4[C@H](C)CC[C@@H]1[C@@]24OO3 yielded an IC50 of 1.7 µM. In the case of C[C@H]1[C@@H](NC(=O)COCc2ccc(/C=C/C(=O)c3ccc(Cl)c(Cl)c3)cc2)O[C@@H]2O[C@@]3(C)CC[C@H]4[C@H](C)CC[C@@H]1[C@@]24OO3, the IC50 is reported as 1.7 µM. Work on C[C@H]1[C@H](NC(=O)COCc2ccc(C(=O)/C=C/c3cccc(Cl)c3Cl)cc2)O[C@@H]2O[C@@]3(C)CC[C@H]4[C@H](C)CC[C@@H]1[C@@]24OO3 yielded an IC50 of 0.1 µM. With C[C@H]1[C@@H](NC(=O)COCc2ccc(/C=C/C(=O)c3ccc(C(F)(F)F)cc3)cc2)O[C@@H]2O[C@@]3(C)CC[C@H]4[C@H](C)CC[C@@H]1[C@@]24OO3 the IC50 was 1.7 µM. COc1cccc(C(=O)/C=C/c2ccc(COCC(=O)N[C@H]3O[C@@H]4O[C@@]5(C)CC[C@H]6[C@H](C)CC[C@@H]([C@H]3C)[C@@]46OO5)cc2)c1 showed an IC50 of 1.7 µM. Molecule COc1cccc(/C=C/C(=O)c2ccc(COCC(=O)N[C@H]3O[C@@H]4O[C@@]5(C)CC[C@H]6[C@H](C)CC[C@@H]([C@H]3C)[C@@]46OO5)cc2)c1 has an IC50 of 0.09 µM.

Each molecule was assayed on NCI-H460 (assay: Antiproliferative activity against human NCI-H460 cells assessed as reduction in cell viability measured for 72 hrs by MTT assay). Details: NCI-H460, 72 h.
Format: functional, cell-based
C[C@H]1[C@H](NC(=O)COCc2ccc(C(=O)/C=C/c3ccccc3F)cc2)O[C@@H]2O[C@@]3(C)CC[C@H]4[C@H](C)CC[C@@H]1[C@@]24OO3 showed an IC50 of 0.1 µM. C[C@H]1[C@@H](NC(=O)COCc2ccc(C(=O)/C=C/c3c(Cl)cccc3Cl)cc2)O[C@@H]2O[C@@]3(C)CC[C@H]4[C@H](C)CC[C@@H]1[C@@]24OO3 was tested, and the IC50 was 0.09 µM. C[C@H]1[C@@H](NC(=O)COCc2ccc(/C=C/C(=O)c3cccc(Cl)c3)cc2)O[C@@H]2O[C@@]3(C)CC[C@H]4[C@H](C)CC[C@@H]1[C@@]24OO3 gave an IC50 of 1.7 µM. Molecule C[C@H]1[C@@H](NC(=O)COCc2ccc(/C=C/C(=O)c3ccc(Cl)c(Cl)c3)cc2)O[C@@H]2O[C@@]3(C)CC[C@H]4[C@H](C)CC[C@@H]1[C@@]24OO3 has an IC50 of 1.7 µM. C[C@H]1[C@H](NC(=O)COCc2ccc(C(=O)/C=C/c3cccc(Cl)c3Cl)cc2)O[C@@H]2O[C@@]3(C)CC[C@H]4[C@H](C)CC[C@@H]1[C@@]24OO3 gave an IC50 of 0.1 µM. Work on C[C@H]1[C@@H](NC(=O)COCc2ccc(/C=C/C(=O)c3ccc(C(F)(F)F)cc3)cc2)O[C@@H]2O[C@@]3(C)CC[C@H]4[C@H](C)CC[C@@H]1[C@@]24OO3 yielded an IC50 of 1.7 µM. Molecule COc1cccc(C(=O)/C=C/c2ccc(COCC(=O)N[C@H]3O[C@@H]4O[C@@]5(C)CC[C@H]6[C@H](C)CC[C@@H]([C@H]3C)[C@@]46OO5)cc2)c1 has an IC50 of 1.7 µM. Molecule COc1cccc(/C=C/C(=O)c2ccc(COCC(=O)N[C@H]3O[C@@H]4O[C@@]5(C)CC[C@H]6[C@H](C)CC[C@@H]([C@H]3C)[C@@]46OO5)cc2)c1 has an IC50 of 0.09 µM.

What follows are molecules tested on HeLa (assay: Antiproliferative activity against human HeLa cells assessed as reduction in cell viability measured for 72 hrs by MTT assay). Details: not given.
Format: functional, cell-based
C[C@H]1[C@H](NC(=O)COCc2ccc(C(=O)/C=C/c3ccccc3F)cc2)O[C@@H]2O[C@@]3(C)CC[C@H]4[C@H](C)CC[C@@H]1[C@@]24OO3 was tested, and the IC50 was 0.1 µM. For C[C@H]1[C@@H](NC(=O)COCc2ccc(C(=O)/C=C/c3c(Cl)cccc3Cl)cc2)O[C@@H]2O[C@@]3(C)CC[C@H]4[C@H](C)CC[C@@H]1[C@@]24OO3, the IC50 was 0.09 µM. C[C@H]1[C@@H](NC(=O)COCc2ccc(/C=C/C(=O)c3cccc(Cl)c3)cc2)O[C@@H]2O[C@@]3(C)CC[C@H]4[C@H](C)CC[C@@H]1[C@@]24OO3 showed an IC50 of 1.7 µM. Molecule C[C@H]1[C@@H](NC(=O)COCc2ccc(/C=C/C(=O)c3ccc(Cl)c(Cl)c3)cc2)O[C@@H]2O[C@@]3(C)CC[C@H]4[C@H](C)CC[C@@H]1[C@@]24OO3 has an IC50 of 1.7 µM. C[C@H]1[C@H](NC(=O)COCc2ccc(C(=O)/C=C/c3cccc(Cl)c3Cl)cc2)O[C@@H]2O[C@@]3(C)CC[C@H]4[C@H](C)CC[C@@H]1[C@@]24OO3 showed an IC50 of 0.1 µM. Work on C[C@H]1[C@@H](NC(=O)COCc2ccc(/C=C/C(=O)c3ccc(C(F)(F)F)cc3)cc2)O[C@@H]2O[C@@]3(C)CC[C@H]4[C@H](C)CC[C@@H]1[C@@]24OO3 yielded an IC50 of 1.7 µM. Molecule COc1cccc(C(=O)/C=C/c2ccc(COCC(=O)N[C@H]3O[C@@H]4O[C@@]5(C)CC[C@H]6[C@H](C)CC[C@@H]([C@H]3C)[C@@]46OO5)cc2)c1 has an IC50 of 1.7 µM. In the case of COc1cccc(/C=C/C(=O)c2ccc(COCC(=O)N[C@H]3O[C@@H]4O[C@@]5(C)CC[C@H]6[C@H](C)CC[C@@H]([C@H]3C)[C@@]46OO5)cc2)c1, the IC50 is reported as 0.09 µM.

What follows are molecules tested on HT-29 (assay: Antiproliferative activity against human HT-29 cells assessed as reduction in cell viability measured for 72 hrs by MTT assay). Details: HT-29, 72 h.
Format: functional, cell-based
Molecule C[C@H]1[C@H](NC(=O)COCc2ccc(C(=O)/C=C/c3ccccc3F)cc2)O[C@@H]2O[C@@]3(C)CC[C@H]4[C@H](C)CC[C@@H]1[C@@]24OO3 has an IC50 of 0.1 µM. With C[C@H]1[C@@H](NC(=O)COCc2ccc(C(=O)/C=C/c3c(Cl)cccc3Cl)cc2)O[C@@H]2O[C@@]3(C)CC[C@H]4[C@H](C)CC[C@@H]1[C@@]24OO3 the IC50 was 0.09 µM. In the case of C[C@H]1[C@@H](NC(=O)COCc2ccc(/C=C/C(=O)c3cccc(Cl)c3)cc2)O[C@@H]2O[C@@]3(C)CC[C@H]4[C@H](C)CC[C@@H]1[C@@]24OO3, the IC50 is reported as 1.7 µM. In the case of C[C@H]1[C@@H](NC(=O)COCc2ccc(/C=C/C(=O)c3ccc(Cl)c(Cl)c3)cc2)O[C@@H]2O[C@@]3(C)CC[C@H]4[C@H](C)CC[C@@H]1[C@@]24OO3, the IC50 is reported as 1.7 µM. C[C@H]1[C@H](NC(=O)COCc2ccc(C(=O)/C=C/c3cccc(Cl)c3Cl)cc2)O[C@@H]2O[C@@]3(C)CC[C@H]4[C@H](C)CC[C@@H]1[C@@]24OO3 gave an IC50 of 0.1 µM. For C[C@H]1[C@@H](NC(=O)COCc2ccc(/C=C/C(=O)c3ccc(C(F)(F)F)cc3)cc2)O[C@@H]2O[C@@]3(C)CC[C@H]4[C@H](C)CC[C@@H]1[C@@]24OO3, the IC50 was 1.7 µM. COc1cccc(C(=O)/C=C/c2ccc(COCC(=O)N[C@H]3O[C@@H]4O[C@@]5(C)CC[C@H]6[C@H](C)CC[C@@H]([C@H]3C)[C@@]46OO5)cc2)c1 gave an IC50 of 1.7 µM. COc1cccc(/C=C/C(=O)c2ccc(COCC(=O)N[C@H]3O[C@@H]4O[C@@]5(C)CC[C@H]6[C@H](C)CC[C@@H]([C@H]3C)[C@@]46OO5)cc2)c1 was tested, and the IC50 was 0.09 µM.
